Reference: US20220170940A1, “BIOMARKER WITH THERAPEUTIC IMPLICATIONS FOR PERITONEAL CARCINOMATOSIS” (SINGAPORE HEALTH SERVICES PTE LTD, priority 2019, published 2022)

Assays:
Colo-205 cells [1] = test: In vitro drug treatment, CellTitreGlo proliferation of cell-free ascites-treated cells; type: cell-based, Human; details: 5% cell-free ascites of PPA, CAP, APA groups or FBS control, 72 hours
Experimental: A total of 5,000 cells/wells were seeded in 96-well plates and were grown for 24 hours in serum-free RPMI medium supplemented with 5% cell-free ascites or complete media, and then treated with various concentrations of TM5441 (PAI-1 inhibitor), Tiplaxtinin (PAI-1 inhibitor), Napabucasin (STAT3 inhibitor), BEZ235 (dual PI3K/mTOR inhibitor) and Mitomycin C (chemotherapeutic agent used in hyperthermic intraperitoneal chemotherapy (HIPEC)) for 72 hours. Cell proliferation was assessed using CellTitreGlo assay (Promega, Madison, US). These experiments were performed in triplicates and were repeated at least 3 times.

phospho-STAT3 (Tyr705) = test: p-STAT3 (Y705) ELISA of cell-free ascites-treated cancer cells with TM5441; type: cell-based, Human; details: cells exposed to PPA cell-free ascites (PC085, PC383) versus CAP (PC249) and APA (PC010)
Experimental: Concentrations of PAI-1 (DSE100), IL6 (D6050), IL10 (D1000B), CCL2 (DCP00), MMP9 (DMP900), ANGPT1 (DANG10), TGFB1 (DB100B), and CXCL10 (DIP100) in cell-free ascites were quantified using human Quantikine ELISA kits from R&D Systems. Concentrations of POSTN (DY3548B) and CD44 (DY7045-05) in cell-free ascites were quantified using human DuoSet ELISA kits from R&D Systems. VSIG4 (ELH-VSIG4-1) concentration in cell-free ascites was quantified using ELISA from RayBiotech. All samples were performed with 2 technical replicates according to the manufacturers' instructions. Total STAT3 and phospho-STAT3 (Tyr705) were detected with ELISA (7305C and 7300C, Cell Signalling Technology, Massachusetts, US). Proteins were isolated from cell lysates of Colo-205 and SNU-C1 that were treated with 5% cell-free ascites for 24 hours. In all experiments, 25 μg of protein was used for total STAT3 and p-STAT3(Y705) ELISA following the manufacturer's instructions.

[2] = tested on: IL6-JAK-STAT3 signalling pathway; test: Gene expression profiling (RNA microarray, GSEA) upon PAI-1 inhibition; type: cell-based, Human; details: Colo-205 cells, PPA cell-free ascites (PC085), 27.25 μM TM5441 vs DMSO, 24 hours
Experimental: To assess signalling pathways affected by PAI-1 inhibition, Colo-205 cells were treated with cell-free ascites representative of PAI-1 paracrine addicted (PPA) group, co-activators predominant (CAP) group or foetal bovine serum (FBS; control) in the presence of DMSO vehicle or 27.25 μM TM5441 for 24 hours. Total RNA was isolated using Qiagen Mini Kit (Qiagen, CA, USA), following the manufacturer's instructions. Gene expression profiling was performed using Affymetrix GeneChip Genome U133 Plus 2.0 microarray platform (Affymetrix, Santa Clara, Calif.) in accordance to manufacturer's protocols. Microarray data was uploaded into the free programming software R (R Foundation for Statistical Computing, Vienna, Austria) for processing and normalization. Gene Set Enrichment Analysis (GSEA) was used to assess enrichment of genes showing up- and down-regulation using GSEA graphical user interface (GUI) software (http://www.broadinstitute.org/gsea/).

Colo-205 cells [3] = test: In vivo PC cell line mouse model drug treatment (ascites groups); parameters: species or system BALB/c nude mice; details: PPA cell-free ascites (PC085)-treated mice; 1.75 mM TM5441 i.p. every 3 days for 21 days; n=5 mice/group
Experimental: To determine the efficacy of PAI-1 inhibition in different susceptibility ascites groups in vivo, 5×10^6 of Colo-205 cells were co-injected with cell-free ascites representative of PAI-1 paracrine addicted (PPA) group, co-activators predominant (CAP) group or foetal bovine serum (FBS) into abdominal cavity of 6- to 8-week-old BALB/c nude mice (female, n=5 mice/group) and treated with 1.75 mM TM5441 administered intraperitoneally. Ascites and drug treatment were performed by injecting 400 μL of 5% cell-free ascites or 10% foetal bovine serum (FBS) with TM5441 intraperitoneally every 3 days for a duration of 21 days. After 3 weeks, the mice were sacrificed and tumour burden was quantified based on a modified peritoneal carcinomatosis index (PCI) score and presented as total peritoneal carcinomatosis index (PCI) score. Total peritoneal carcinomatosis index (PCI) score was calculated based on the sum of score for each region and ranges from 0 to 39.

Colo-205 cells [4] = test: In vivo PC cell line mouse model, drug concentration and delivery method (i.p. vs oral); parameters: species or system BALB/c nude mice; details: PPA cell-free ascites (PC085); i.p. every 3 days up to 21 days; n=4 mice/group
Experimental: To determine the optimal drug concentration and drug delivery method, a total of 16 female BALB/c nude mice with the age of 6-8 weeks old were selected for the experiment. Each mouse was injected with 5×10^6 of Colo-205 cells intraperitoneally. The mice were divided into 4 groups and given the following treatments: (i) 5% cell-free ascites with 1% DMSO, (ii) 5% cell-free ascites with 1 mM TM5441, (iii and iv) 5% cell-free ascites with 2 mM TM5441. Treatment was performed by injecting 400 μL of 5% cell-free ascites with DMSO vehicle/drug intraperitoneally (i-iii) and orally (iv) every 3 days, up to 21 days. After 3 weeks, the mice were sacrificed and tumour burden was quantified based on a modified peritoneal carcinomatosis index (PCI) score and presented as total peritoneal carcinomatosis index (PCI) score. Total peritoneal carcinomatosis index (PCI) score was calculated based on the sum of score for each region and ranges from 0 to 39.

[5] = tested on: patient-derived ascites-dependent xenograft (PDADX) tumours; test: Patient-derived ascites-dependent xenografts (PDADXs) drug treatment; type: in vivo, BALB/c nude mice; details: 2 mM TM5441 i.p. every 3 days for 21 days
Experimental: Ascites collected from patients with peritoneal carcinomatosis were centrifuged at 2000 g for 10 minutes to concentrate the cellular components and to separate the fluid component. 1 mL of cell pellet was resuspended with 1 mL of ascitic fluid and 400 μL of the mixture was implanted intraperitoneally into 6-week-old BALB/c nude mice (n=5 mice) to generate patient-derived ascites-dependent xenograft (PDADX) passage 0 (P0). For subsequent passages, patient-derived ascites-dependent xenograft (PDADX) tumours were diced into small pieces using scalpel blades and passed through an 18-G syringe needle. Diced tumours were resuspended with matched patient's ascites at 1:1 ratio and implanted intraperitoneally into 6-week-old BALB/c nude mice (n=10 mice).
Matched patient's cell-free ascites and its cellular components were used to generate patient-derived ascites-dependent xenografts (PDADXs) to better recapitulate peritoneal carcinomatosis patients. PAI-1 paracrine addicted (PPA) patient-derived ascites-dependent xenograft (PDADX) tumours (100 mg) were implanted into 16 female BALB/c nude mice intraperitoneally and co-activators predominant (CAP) patient-derived ascites-dependent xenograft (PDADX) tumours (100 mg) were implanted into 16 female BALB/c nude mice intraperitoneally. […] Tumour burden was quantified by weighing all visible tumours after mice were sacrificed.
Briefly, co-activators predominant (CAP) patient-derived ascites-dependent xenograft (PDADX) tumours (100 mg) were implanted into 16 female BALB/c nude mice intraperitoneally. […] Tumour burden was quantified by weighing all visible tumours after mice were sacrificed.

## Cn1c(=O)n(-c2ccc(C(C)(C)C#N)cc2)c2c3cc(-c4cnc5ccccc5c4)ccc3ncc21 [BEZ235]
Colo-205 cells [1]
  Sensitivity of cell-free ascites-treated Colo-205 cells to inhibitor (dose-response, cell proliferation): ineffective

## CO[C@@]12[C@H](COC(N)=O)C3=C(C(=O)C(C)=C(N)C3=O)N1C[C@@H]1N[C@@H]12 [Mitomycin C]
Colo-205 cells [1]
  Sensitivity of cell-free ascites-treated Colo-205 cells to inhibitor (dose-response, cell proliferation): ineffective

## CC(=O)c1cc2c(o1)C(=O)c1ccccc1C2=O [Napabucasin]
Colo-205 cells [1]
  Sensitivity of cell-free ascites-treated Colo-205 cells to inhibitor (dose-response, cell proliferation): ineffective

## O=C(COCC(=O)Nc1ccc(Cl)cc1C(=O)[O-])Nc1cccc(-c2ccoc2)c1.[Na+] [TM5441, 5-Chloro-2-[[2-[2-[[3-(3-furanyl)phenyl]amino]-2-oxoethoxy]acetyl]amino]benzoic acid sodium salt]
Colo-205 cells [1]
  Sensitivity of cell-free ascites-treated Colo-205 cells to inhibitor (dose-response, cell proliferation): PAI-1 paracrine addicted (PPA) (n=18) being the most sensitive to PAI-1 inhibition, followed by co-activators predominant (CAP) (n=59) and alternative pathways activation (APA) (n=17)
phospho-STAT3 (Tyr705)
  Concentration needed to suppress STAT3 activation (p-STAT3 ELISA): required a lower concentration of TM5441 to supress STAT3 activation
[2]
  IL6-JAK-STAT3 signalling pathway regulation (GSEA): significantly down-regulated
Colo-205 cells [3]
  Tumour burden (modified PCI score): significant reduction in tumour burden
Colo-205 cells [4]
  Formation of peritoneal tumours (modified PCI score), intraperitoneal instillation: effectively inhibited
[5]; CAP PDADX (PC249) exposed to PC383 PPA ascites
  Tumour burden (weight of all visible tumours), PC249 PDADX with PPA cell-free ascites (PC383): became susceptible to PAI-1 inhibition
[5]; CAP PDADX (PC249), matched CAP ascites
  Tumour burden (weight of all visible tumours), PC249 PDADX with matched cell-free ascites: no reduction in tumour burden compared to vehicle control
[5]; PPA PDADX (PC383), matched PPA ascites, n=4 mice/group
  Tumour burden (weight of all visible tumours), PC383 PDADX with matched cell-free ascites: significantly superior inhibition of tumour growth compared to vehicle control

## O=C(O)C(=O)c1cn(Cc2ccccc2)c2ccc(-c3ccc(OC(F)(F)F)cc3)cc12 [Tiplaxtinin, 2-(1-Benzyl-5-(4-(trifluoromethoxy)phenyl)-1H-indol-3-yl)oxoacetic acid]
Colo-205 cells [1]
  Sensitivity of cell-free ascites-treated Colo-205 cells to inhibitor (dose-response, cell proliferation): showed the same trend of differential response
